Biological target: T1, Human BTK enzyme (Homo sapiens, UniProt Q06187)
T1 construct: Reaction Biology Corporation
Assay: BTK inhibitory activity assay at Reaction Biology Corporation, peptide substrate
Format: biochemical
Conditions: peptide substrate 20 μM, ATP 10 μM; for inhibition at 0.005 µM: read-out: Inhibition of ALK, IC50 (Inhibitory Activities of examples at 5 nM)

T1 sequence (Q06187 whole entry): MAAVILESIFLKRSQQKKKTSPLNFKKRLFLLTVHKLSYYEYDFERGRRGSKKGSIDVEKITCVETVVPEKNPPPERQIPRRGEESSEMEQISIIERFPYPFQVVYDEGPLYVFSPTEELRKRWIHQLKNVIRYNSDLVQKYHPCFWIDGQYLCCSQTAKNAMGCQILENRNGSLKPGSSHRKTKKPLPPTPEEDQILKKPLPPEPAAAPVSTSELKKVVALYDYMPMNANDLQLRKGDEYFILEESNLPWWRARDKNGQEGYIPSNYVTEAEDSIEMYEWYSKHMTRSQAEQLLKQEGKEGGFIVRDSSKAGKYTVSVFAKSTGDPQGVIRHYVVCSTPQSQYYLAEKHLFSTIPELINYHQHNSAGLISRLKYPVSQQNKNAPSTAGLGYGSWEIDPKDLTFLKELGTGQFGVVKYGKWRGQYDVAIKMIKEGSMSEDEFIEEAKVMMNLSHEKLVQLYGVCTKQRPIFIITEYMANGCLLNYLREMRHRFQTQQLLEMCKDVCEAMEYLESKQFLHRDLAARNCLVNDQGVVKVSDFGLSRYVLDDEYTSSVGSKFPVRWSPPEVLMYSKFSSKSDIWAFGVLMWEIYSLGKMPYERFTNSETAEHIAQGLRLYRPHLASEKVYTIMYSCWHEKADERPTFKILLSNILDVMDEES

inhibition at 0.005 µM (compound at 5 nM) [%]	percent inhibition of BTK at 5 nM (compound at 5 nM) [%]	IC50 [nM]	SMILES
80.1	–	–	C=CC(=O)N1CCC2(CC1)CC(n1nc(-c3ccc(Oc4ccccc4)cc3)c3c(N)ncnc31)C2 [Example 2, 1-(2-(4-amino-3-(4-phenoxyphenyl)-1H-pyrazolo[3,4-d]pyrimidin-1-yl)-7-azaspiro[3.5]nonan-7-yl)prop-2-en-1-one]
–	97.9	–	C=CC(=O)N1CCCC2(CC(n3nc(-c4ccc(Oc5ccccc5)cc4)c4c(N)ncnc43)C2)C1 (stereo not drawn) [Example 4B, 1-(2-(4-amino-3-(4-phenoxyphenyl)-1H-pyrazolo[3,4-d]pyrimidin-1-yl)-6-azaspiro[3.5]nonan-6-yl)prop-2-en-1-one]
96.4	–	–	C=CC(=O)N1CC2(CCC(n3nc(-c4ccc(Oc5ccccc5)cc4)c4c(N)ncnc43)CC2)C1 [Example 3, 1-(7-(4-amino-3-(4-phenoxyphenyl)-1H-pyrazolo[3,4-d]pyrimidin-1-yl)-2-azaspiro[3.5]nonan-2-yl)prop-2-en-1-one]
98.5	–	1.48	C=CC(=O)N1CC2(CC(n3nc(-c4ccc(Oc5ccccc5)cc4)c4c(N)ncnc43)C2)C1 [Example 1, 1-(6-(4-Amino-3-(4-phenoxyphenyl)-1H-pyrazolo[3,4-d]pyrimidin-1-yl)-2-azaspiro[3.3]heptan-2-yl)prop-2-en-1-one]
85.7	–	–	C=CC(=O)N1CCCC2(CC(n3nc(-c4ccc(Oc5ccccc5)cc4)c4c(N)ncnc43)C2)C1 (stereo not drawn) [Example 4A, 1-(2-(4-amino-3-(4-phenoxyphenyl)-1H-pyrazolo[3,4-d]pyrimidin-1-yl)-6-azaspiro[3.5]nonan-6-yl)prop-2-en-1-one]
